Assay results as given in publication PMC10999543, “Identification of kinase modulators as host-directed therapeutics against intracellular methicillin-resistant Staphylococcus aureus” (Frontiers in Cellular and Infection Microbiology, 2024).
Read-outs that look alike come from different tables or passages of the source.

Key:
intracellular MRSA = type: cell-based, Staphylococcus aureus; settings: for %GFP+ rep 1 / z-scoreMRSA+ rep 1: replicate 1; for %GFP+ rep 2 / z-scoreMRSA+ rep 2: replicate 2; for %GFP+ rep 3 / z-scoreMRSA+ rep 3: replicate 3; for z-scoreMRSA+ mean: mean of 3 replicates
Outline: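 HeLa cells infected with GFP-MRSA (MOI ~6.8), gentamicin-cleared, then incubated overnight at 37°C with inhibitors plus 5 µg/ml gentamicin; DMSO as negative control, triplicates. Flow cytometry gave % GFP-positive cells and cell count (viability surrogate); hits by plate z-score (MRSA ≤ -2, HeLa count ≥ -3).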

HeLa cells = assay: Compound screen by flow cytometry: HeLa cell count as surrogate readout of cell viability (z-scoreHeLa); type: cell-based, human; settings: for cell count rep 1 / z-scoreHeLa rep 1: replicate 1; for cell count rep 2 / z-scoreHeLa rep 2: replicate 2; for cell count rep 3 / z-scoreHeLa rep 3: replicate 3; for z-scoreHeLa mean: mean of 3 replicates
Outline: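 HeLa cells were infected with GFP-MRSA (mean MOI 6.8 ± 4.6) for 1 h, and extracellular bacteria were killed with 30 µg/ml gentamicin. Cells were then incubated overnight with kinase inhibitors in 5 µg/ml gentamicin, in triplicate against DMSO controls. Flow-cytometric cell count served as a viability surrogate, expressed as a plate z-score.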

[1] = PKIS compound screen raw data, MRSA-infected HeLa cells
[2] = Yes/No: effect without cell death
[3] = compound screen, MRSA-infected HeLa cells
[4] = PKIS compound screen raw data, HeLa cell count
[5] = compound screen, HeLa cell count
[6] = PKIS compound screen, MRSA-infected HeLa cells
[7] = PKIS compound screen, Yes/No call
[8] = PKIS compound screen, Yes/No call (effect without cell death)
[9] = PKIS compound screen, Yes/No call on z-scoreMRSA+
[10] = PKIS compounds raw data, MRSA-infected HeLa cells
[11] = PKIS compound screen, HeLa cell count
[12] = PKIS compound screen, Yes/No call on z-scoreHeLa
[13] = PKIS compounds raw data, HeLa cell count

SMILES: COc1ccc(CNC(=O)NC2CCN(c3ccnc(Nc4ccc(F)cc4)n3)CC2)cc1 [GSK1379788A]
- %GFP+ rep 1 (intracellular MRSA; [1]): 25.3%
- %GFP+ rep 2 (intracellular MRSA; [1]): 23.5%
- %GFP+ rep 3 (intracellular MRSA; [1]): 21.9%
- effect (intracellular MRSA; Yes/No call from z-scoreMRSA+): No
- hit (intracellular MRSA; [2]): No
- z-scoreMRSA+ mean (intracellular MRSA; [3]): 0.044
- z-scoreMRSA+ rep 1 (intracellular MRSA; [3]): 0.00598
- z-scoreMRSA+ rep 2 (intracellular MRSA; [3]): 0.22
- z-scoreMRSA+ rep 3 (intracellular MRSA; [3]): -0.09
- cell count rep 1 (HeLa cells; [4]): 6376
- cell count rep 2 (HeLa cells; [4]): 5935
- cell count rep 3 (HeLa cells; [4]): 7721
- cell death (HeLa cells; Yes/No call from z-scoreHeLa): No
- z-scoreHeLa mean (HeLa cells; [5]): 1.43
- z-scoreHeLa rep 1 (HeLa cells; [5]): 1.46
- z-scoreHeLa rep 2 (HeLa cells; [5]): 1.26
- z-scoreHeLa rep 3 (HeLa cells; [5]): 1.57

SMILES: COc1ccc(Nc2nccc(N3CCC(NC(=O)Nc4cccc(C(C)=O)c4)C3)n2)cc1 (stereo not drawn) [GSK1379731A]
- %GFP+ rep 1 (intracellular MRSA; [1]): 20.9%
- %GFP+ rep 2 (intracellular MRSA; [1]): 21.1%
- %GFP+ rep 3 (intracellular MRSA; [1]): 24.3%
- z-scoreMRSA+ mean (intracellular MRSA; [6]): 0.62
- z-scoreMRSA+ rep 1 (intracellular MRSA; [6]): 0.57
- z-scoreMRSA+ rep 2 (intracellular MRSA; [6]): 0.46
- z-scoreMRSA+ rep 3 (intracellular MRSA; [6]): 0.84
- effect (intracellular MRSA; [7]): No
- hit (intracellular MRSA; [8]): No
- effect (intracellular MRSA; [9]): No
- z-scoreMRSA+ mean (intracellular MRSA; PKIS compound screen): 0.32
- z-scoreMRSA+ rep 1 (intracellular MRSA; PKIS compound screen): 0.53
- z-scoreMRSA+ rep 2 (intracellular MRSA; PKIS compound screen): 0.41
- z-scoreMRSA+ rep 3 (intracellular MRSA; PKIS compound screen): 0.00589
- %GFP+ rep 1 (intracellular MRSA; [10]): 29.8%
- %GFP+ rep 2 (intracellular MRSA; [10]): 28.2%
- %GFP+ rep 3 (intracellular MRSA; [10]): 27.3%
- cell count rep 1 (HeLa cells; [4]): 33897
- cell count rep 2 (HeLa cells; [4]): 29436
- cell count rep 3 (HeLa cells; [4]): 19502
- z-scoreHeLa mean (HeLa cells; [11]): 0.48
- z-scoreHeLa rep 1 (HeLa cells; [11]): 0.63
- z-scoreHeLa rep 2 (HeLa cells; [11]): 0.71
- z-scoreHeLa rep 3 (HeLa cells; [11]): 0.11
- cell death (HeLa cells; [7]): No
- cell death (HeLa cells; [12]): No
- z-scoreHeLa mean (HeLa cells; PKIS compound screen): 1.12
- z-scoreHeLa rep 1 (HeLa cells; PKIS compound screen): 1.44
- z-scoreHeLa rep 2 (HeLa cells; PKIS compound screen): 1.25
- z-scoreHeLa rep 3 (HeLa cells; PKIS compound screen): 0.66
- cell count rep 1 (HeLa cells; [13]): 8450
- cell count rep 2 (HeLa cells; [13]): 7898
- cell count rep 3 (HeLa cells; [13]): 6635

SMILES: Cn1cc(-c2ccc3c(c2)CCN3C(=O)Cc2cc(F)cc(C(F)(F)F)c2)c2c(N)ncnc21 [GSK2635225A]
- %GFP+ rep 1 (intracellular MRSA; [1]): 22.6%
- %GFP+ rep 2 (intracellular MRSA; [1]): 22.9%
- %GFP+ rep 3 (intracellular MRSA; [1]): 20.1%
- effect (intracellular MRSA; Yes/No call from z-scoreMRSA+): No
- hit (intracellular MRSA; [2]): No
- z-scoreMRSA+ mean (intracellular MRSA; [3]): -0.39
- z-scoreMRSA+ rep 1 (intracellular MRSA; [3]): -0.62
- z-scoreMRSA+ rep 2 (intracellular MRSA; [3]): 0.07
- z-scoreMRSA+ rep 3 (intracellular MRSA; [3]): -0.63
- cell count rep 1 (HeLa cells; [4]): 4783
- cell count rep 2 (HeLa cells; [4]): 4290
- cell count rep 3 (HeLa cells; [4]): 4665
- cell death (HeLa cells; Yes/No call from z-scoreHeLa): No
- z-scoreHeLa mean (HeLa cells; [5]): -0.02
- z-scoreHeLa rep 1 (HeLa cells; [5]): 0.31
- z-scoreHeLa rep 2 (HeLa cells; [5]): -0.0088
- z-scoreHeLa rep 3 (HeLa cells; [5]): -0.36

SMILES: COc1cc2c(Nc3cccc(NC(=O)c4ccccc4)c3)ncnc2cc1OCCCN1CCOCC1 [GSK223810A]
- %GFP+ rep 1 (intracellular MRSA; [1]): 19.8%
- %GFP+ rep 2 (intracellular MRSA; [1]): 21.2%
- %GFP+ rep 3 (intracellular MRSA; [1]): 22.6%
- z-scoreMRSA+ mean (intracellular MRSA; [6]): 0.38
- z-scoreMRSA+ rep 1 (intracellular MRSA; [6]): 0.27
- z-scoreMRSA+ rep 2 (intracellular MRSA; [6]): 0.49
- z-scoreMRSA+ rep 3 (intracellular MRSA; [6]): 0.37
- hit (intracellular MRSA; [8]): No
- effect (intracellular MRSA; [9]): No
- cell count rep 1 (HeLa cells; [4]): 28720
- cell count rep 2 (HeLa cells; [4]): 24881
- cell count rep 3 (HeLa cells; [4]): 20680
- z-scoreHeLa mean (HeLa cells; [11]): 0.00813
- z-scoreHeLa rep 1 (HeLa cells; [11]): -0.25
- z-scoreHeLa rep 2 (HeLa cells; [11]): -0.07
- z-scoreHeLa rep 3 (HeLa cells; [11]): 0.34
- cell death (HeLa cells; [12]): No
